Test results as given in US10071975B2, “Macrocyclic amidinourea derivatives, methods of preparation and uses thereof as chitinase inhibitors” (CYGNET BIOSCIENCES B.V., priority 2013, dated 2018).
Converted amounts (≈) assume the structure as drawn.

Key:
[1] = system: C. albicans; assay: Antimicrobial susceptibility testing (microdilution MIC90), C. albicans strains; assay type: cell-based; details: Candida albicans; C. albicans (22 strains tested); 24 h, visually and spectrophotometrically
Procedure: (§1) Sterile plastic microtitration plates containing flat-bottomed wells were used. The plates contained serial dilution of the antifungal agents with a volume of assay medium of 100 μL/well. Two drug-free medium wells were used as sterility and growth controls. The trays were inoculated with 100 μL/well of the final inoculum, with the exception of sterility control wells. […] The microtitration plates were incubated at 37° C. for 24 h. The minimal inhibitory concentrations (MICs) were determined at 24 h both visually and spectrophotometrically measuring the turbidity at 595 nm with a Varian model 1475 spectrophotometer. Results of biological tests are shown in Table 2, biological data are reported as MIC90 that is the minimum concentration required to inhibit the growth of at least the 90% of the strains tested for each species.

[2] = system: C. albicans fluconazole resistant strains; assay: microbe, parasite or virus in culture; assay type: cell-based; details: Candida albicans, 24 h
[3] = system: C. krusei; assay: Antimicrobial susceptibility testing (microdilution MIC90), C. krusei strains; assay type: cell-based, Candida krusei; details: Pichia kudriavzevii; C. krusei (13 strains tested); 24 h; read-out: MIC90
Procedure: as §1

[4] = system: C. parapsilosis; assay: Antimicrobial susceptibility testing (microdilution MIC90), C. parapsilosis strains; assay type: cell-based, Candida parapsilosis; details: Lodderomyces parapsilosis; C. parapsilosis (24 strains tested); 24 h
Procedure: as §1

[5] = system: C. guilliermondii; assay: Antimicrobial susceptibility testing (microdilution MIC90), C. guilliermondii strains; assay type: cell-based, Candida guilliermondii; details: Meyerozyma guilliermondii; C. guilliermondii (10 strains tested); 24 h
Procedure: as §1

[6] = system: C. glabrata; assay: Antimicrobial susceptibility testing (microdilution MIC90), C. glabrata strains; assay type: cell-based, Candida glabrata; details: Nakaseomyces glabratus; C. glabrata (26 strains tested); 24 h
Procedure: as §1

[7] = system: C. glabrata fluconazole resistant strains; assay: microbe, parasite or virus in culture; assay type: cell-based, Candida glabrata; details: Nakaseomyces glabratus, 24 h
[8] = system: C. kefyr; assay: Antimicrobial susceptibility testing (microdilution MIC90), C. kefyr strains; assay type: cell-based, Candida kefyr; details: Kluyveromyces marxianus; C. kefyr (10 strains tested); 24 h
Procedure: as §1

[9] = system: C. tropicalis; assay: Antimicrobial susceptibility testing (microdilution MIC90), C. tropicalis strains; assay type: cell-based; details: Candida tropicalis; C. tropicalis (11 strains tested); 24 h
Procedure: as §1

[10] = strain DSY284, ERG11 Mutation, mean of three measurements
[11] = strain DSY289, ERG11 Mutation (2)
[12] = strain DSY291, ERG11 Mutation (2)
[13] = strain DSY292, ERG11 Mutation (3)
[14] = strain DSY751, ↑MDR1, ERG11 Mutation

Row | MIC90 [1] [µg/mL] | MIC90 [3] [µg/mL] | MIC90 [4] [µg/mL] | MIC90 [5] [µg/mL] | MIC90 [6] [µg/mL] | MIC90 [8] [µg/mL] | MIC90 [9] [µg/mL] | SMILES | MIC [2, 10] [µg/mL] | MIC [2, 11] [µg/mL] | MIC [2, 12] [µg/mL] | MIC [2, 13] [µg/mL] | MIC ([2]; strain DSY296, ERG11 Mutation) [µg/mL] | MIC ([2]; strain DSY348, ERG11 Mutation) [µg/mL] | MIC ([2]; strain DSY732, ↑CDR1-CDR2) [µg/mL] | MIC ([2]; strain DSY735, ↑CDR1-CDR2) [µg/mL] | MIC ([2]; strain DSY750, ↑MDR1) [µg/mL] | MIC [2, 14] [µg/mL] | MIC ([2]; strain DSY775, ERG11 Mutation) [µg/mL] | MIC ([2]; strain DSY2323, ↑CDR2-MDR1) [µg/mL] | MIC ([7]; strain DSY530, ↑CDR1) [µg/mL] | also measured
1 | 32 (≈ 48.7 µM) | 128 (≈ 195 µM) | 32 (≈ 48.7 µM) | 32 (≈ 48.7 µM) | 64 (≈ 97.4 µM) | 64 (≈ 97.4 µM) | 64 (≈ 97.4 µM) | C/C=C/CNC(=N)NCCCCCCCCN1CCCCCCOc2ccccc2C(c2cn(-c3ccccc3)nn2)NC(=N)NC1=O (centres unmarked) [Example 21] |  |  |  |  |  |  |  |  |  |  |  |  |  | 
2 | 64 (≈ 114 µM) | 256 (≈ 456 µM) | 64 (≈ 114 µM) | 64 (≈ 114 µM) | 128 (≈ 228 µM) | 128 (≈ 228 µM) | 128 (≈ 228 µM) | C/C=C/CNC(=N)NCCCCCCCCN1CCCc2ccccc2COc2ccccc2CNC(=N)NC1=O [Example 22, 1-[(2E)-but-2-en-1-yl]-3-(8-{16-imino-14-oxo-2-oxa-13,15,17-triazatricyclo[17.4.0.0^4,9]tricosa-1(19),4(9),5,7,20,22-hexaen-13-yl}octyl)guanidine] |  |  |  |  |  |  |  |  |  |  |  |  |  | 
3 | 256 (≈ 456 µM) | 256 (≈ 456 µM) | 256 (≈ 456 µM) | 256 (≈ 456 µM) | 128 (≈ 228 µM) | 256 (≈ 456 µM) | 256 (≈ 456 µM) | C/C=C/CNC(=N)NCCCCCCCCN1CCCc2cccc(c2)COc2ccccc2CNC(=N)NC1=O [Example 23, 1-[(2E)-but-2-en-1-yl]-3-(8-{12-imino-14-oxo-3-oxa-11,13,15-triazatricyclo[17.3.1.0^4,9]tricosa-1(23),4(9),5,7,19,21-hexaen-15-yl}octyl)guanidine] |  |  |  |  |  |  |  |  |  |  |  |  |  | 

More lines, now with the values behind:

Row | SMILES | MIC90 [1] [µg/mL] | MIC90 [3] [µg/mL] | MIC90 [4] [µg/mL] | MIC90 [5] [µg/mL] | MIC90 [6] [µg/mL] | MIC90 [8] [µg/mL] | MIC90 [9] [µg/mL] | MIC [2, 10] [µg/mL] | MIC [2, 11] [µg/mL] | MIC [2, 12] [µg/mL] | MIC [2, 13] [µg/mL] | MIC ([2]; strain DSY296, ERG11 Mutation) [µg/mL] | MIC ([2]; strain DSY348, ERG11 Mutation) [µg/mL] | MIC ([2]; strain DSY732, ↑CDR1-CDR2) [µg/mL] | MIC ([2]; strain DSY735, ↑CDR1-CDR2) [µg/mL] | MIC ([2]; strain DSY750, ↑MDR1) [µg/mL] | MIC [2, 14] [µg/mL] | MIC ([2]; strain DSY775, ERG11 Mutation) [µg/mL] | MIC ([2]; strain DSY2323, ↑CDR2-MDR1) [µg/mL] | MIC ([7]; strain DSY530, ↑CDR1) [µg/mL] | also measured
4 | C/C=C/CNC(=N)NCCCCCCCCN1CCCCCCOc2ccccc2CNC(=N)NC1=O [Example 18, 1-[(E)-but-2-enyl]-3-[8-(4-imino-6-oxo-14-oxa-3,5,7-triazabicyclo[13.4.0]nonadeca-1(15), 16,18-trien-7-yl)octyl]guanidine] | 4 (≈ 7.79 µM) | 4 (≈ 7.79 µM) | 2 (≈ 3.89 µM) | 2 (≈ 3.89 µM) | 16 (≈ 31.1 µM) | 2 (≈ 3.89 µM) | 1 (≈ 1.95 µM) | 8 (≈ 15.6 µM) | 8 (≈ 15.6 µM) | 16 (≈ 31.1 µM) | 16 (≈ 31.1 µM) | 16 (≈ 31.1 µM) | 8 (≈ 15.6 µM) | 16 (≈ 31.1 µM) | 16 (≈ 31.1 µM) | 16 (≈ 31.1 µM) | 16 (≈ 31.1 µM) | 16 (≈ 31.1 µM) | 16 (≈ 31.1 µM) | 32 (≈ 62.3 µM) | MIC ([7]; strain DSY754, ↑CDR1): 32 µg/mL (≈ 62.3 µM); MIC ([7]; strain DSY756, ↑CDR1-CDR2-SNQ2): 64 µg/mL (≈ 125 µM); MIC ([7]; strain DSY2254, ↑CDR1-CDR2): 64 µg/mL (≈ 125 µM); MIC ([7]; strain DSY2271, ↑CDR2): 32 µg/mL (≈ 62.3 µM)
5 | C/C=C/CNC(=N)NCCCCCCCCN1CCCCCOC(=O)CCNC(=N)NC1=O [Example 19, 1-[(E)-but-2-enyl]-3-[8-(6-imino-2,8-dioxo-1-oxa-5,7,9-triazacyclotetradec-9-yl)octyl]guanidine] | 32 (≈ 68.7 µM) | 64 (≈ 137 µM) | 32 (≈ 68.7 µM) | 32 (≈ 68.7 µM) | 64 (≈ 137 µM) | 32 (≈ 68.7 µM) | 32 (≈ 68.7 µM) | 16 (≈ 34.4 µM) | 8 (≈ 17.2 µM) | 8 (≈ 17.2 µM) | 16 (≈ 34.4 µM) | 16 (≈ 34.4 µM) | 8 (≈ 17.2 µM) | 8 (≈ 17.2 µM) | 8 (≈ 17.2 µM) | 16 (≈ 34.4 µM) | 16 (≈ 34.4 µM) | 16 (≈ 34.4 µM) | 16 (≈ 34.4 µM) | 64 (≈ 137 µM) | MIC ([7]; strain DSY754, ↑CDR1): 64 µg/mL (≈ 137 µM); MIC ([7]; strain DSY756, ↑CDR1-CDR2-SNQ2): 128 µg/mL (≈ 275 µM); MIC ([7]; strain DSY2254, ↑CDR1-CDR2): 128 µg/mL (≈ 275 µM); MIC ([7]; strain DSY2271, ↑CDR2): 64 µg/mL (≈ 137 µM)
6 | C/C=C/CNC(=N)NCCCCCCCCN1CCCCCCOC(=O)CCNC(=N)NC1=O [Example 20, 1-[(E)-but-2-enyl]-3-[8-(6-imino-2,8-dioxo-1-oxa-5,7,9-triazacyclopentadec-9-yl)octyl]guanidine] | 16 (≈ 33.4 µM) | 32 (≈ 66.7 µM) | 8 (≈ 16.7 µM) | 8 (≈ 16.7 µM) | 32 (≈ 66.7 µM) | 16 (≈ 33.4 µM) | 16 (≈ 33.4 µM) |  |  |  |  |  |  |  |  |  |  |  |  |  | 
7 | C[C@@H](c1ncncc1F)[C@](O)(Cn1cncn1)c1ccc(F)cc1F [VOR, Voriconazole, reference compound] |  |  |  |  |  |  |  | 4 (≈ 11.5 µM) | 8 (≈ 22.9 µM) | 0.03 (≈ 0.0859 µM) | 2 (≈ 5.73 µM) | 8 (≈ 22.9 µM) | 0.25 (≈ 0.716 µM) | 0.25 (≈ 0.716 µM) | 2 (≈ 5.73 µM) | 0.016 (≈ 0.0458 µM) | 0.25 (≈ 0.716 µM) | 8 (≈ 22.9 µM) | 0.25 (≈ 0.716 µM) | 0.5 (≈ 1.43 µM) | MIC ([7]; strain DSY754, ↑CDR1): 2 µg/mL (≈ 5.73 µM); MIC ([7]; strain DSY756, ↑CDR1-CDR2-SNQ2): 4 µg/mL (≈ 11.5 µM); MIC ([7]; strain DSY2254, ↑CDR1-CDR2): 2 µg/mL (≈ 5.73 µM)
